Measurements as given in patent US12459974B2, “Bicyclic peptide ligands specific for Nectin-4” (priority 2018, dated 2025).
*1 amine or outer side, *2 acyl side, *3 side chain or, on linkers, in order; H or OH if unused. Where a SMILES comes first, the peptide text is derived from it. Bridges are numbered along the chain shown (N, C = ends). Roman numbers before positions name the chains, in order. [ ]: non-standard residue; d: D form. The star is where a group is joined. ξ: configuration not given here. TATA = O=C(CC[*:1])N1CN(C(=O)CC[*:2])CN(C(=O)CC[*:3])C1; Dolaproine = CO[C@@H]([C@@H]1CCCN1)[C@@H](C)C(=O)O; X1 = CC[C@H](C)C(C(CC(=O)[*:2])OC)N(C)[*:1]; 1Nal = N[C@@H](Cc1cccc2ccccc12)C(=O)O; X3 = O=C(CCCC(=O)[*:2])NCCC(=O)[*:1]; PABC = O=C(OCc1ccc(N[*:1])cc1)[*:2]; Hyp = O=C(O)[C@@H]1C[C@@H](O)CN1; hArg = N=C(N)NCCCC[C@H](N)C(=O)O; Cit = NC(=O)NCCC[C@H](N)C(=O)O; X2 = CC(N*)[C@@H](O)c1ccccc1; ξNMeV = CNC(C(=O)O)C(C)C; ξV = CC(C)C(N)C(=O)O; Sar = CNCC(=O)O

Experiments:
Design in all cases: species or system Mus Musculus
HCT116 xenograft = assay: Example 9.2: in vivo efficacy in HCT116 xenograft in Balb/c nude mice
NCI-H292 xenograft = assay: Example 9.5: in vivo efficacy in NCI-H292 xenograft in Balb/c nude mice
MDA-MB-468 xenograft = assay: Example 9.8: in vivo efficacy of BCY8245, BCY8781 and BCY8245 with BCY8234 in MDA-MB-468 xenograft in Balb/c nude mice; conditions: for tumor relapse (in words): following monitoring schedule
[1] = 1 mg/kg qw and 3 mg/kg qw in combination with BCY8234 300 mg/kg qw, day 21

CC[C@H](C)C(C(CC(=O)N1CCC[C@H]1[C@H](OC)[C@@H](C)C(=O)NC(C)[C@@H](O)c1ccccc1)OC)N(C)C(=O)[C@@H](NC(=O)C(C(C)C)N(C)C(=O)OCc1ccc(NC(=O)[C@H](CCCNC(N)=O)NC(=O)C(NC(=O)CCCC(=O)NCCC(=O)N(C)CC(=O)N(C)CC(=O)N(C)CC(=O)N(C)CC(=O)N(C)CC(=O)N(C)CC(=O)N(C)CC(=O)N(C)CC(=O)N(C)CC(=O)N(C)CC(=O)N[C@H]2CSCCC(=O)N3CN4CN(C3)C(=O)CCSC[C@H](NC(=O)[C@@H](CC(=O)O)NC(=O)[C@H](Cc3cccc5ccccc35)NC(=O)[C@@H]3CCCN3C2=O)C(=O)N[C@@H](CCSC)C(=O)N[C@@H](CCCCNC(=N)N)C(=O)N[C@@H](CC(=O)O)C(=O)N[C@@H](Cc2c[nH]c3ccccc23)C(=O)N[C@@H](CO)C(=O)N[C@@H]([C@@H](C)O)C(=O)N2CCC[C@H]2C(=O)N2C[C@H](O)C[C@H]2C(=O)N[C@@H](Cc2c[nH]c3ccccc23)C(=O)N[C@H](C(N)=O)CSCCC4=O)C(C)C)cc1)C(C)C (stereo partly drawn) [BCY8245, MMAE-PABC-Cit-Val-Glutaryl-BCY8234] (I: [Sar][Sar][Sar][Sar][Sar][Sar][Sar][Sar][Sar][Sar]CP[1Nal][dD]CM[hArg]DWSTP[Hyp]WC-NH2 / II: [ξV][Cit][PABC][ξNMeV]V[X1][Dolaproine]-X2; linker I:11-I:15-I:25 via TATA; linker I:N-II:N via X3)
Tumor volume trace over time (HCT116 xenograft; 5 mpk, qw, iv, day 0 after the start of treatment, mean ± SEM): 166 ± 35 mm^3 | Tumor volume trace over time (HCT116 xenograft; 5 mpk, qw, iv, day 2 after the start of treatment, mean ± SEM): 201 ± 42 mm^3 | Tumor volume trace over time (HCT116 xenograft; 5 mpk, qw, iv, day 4 after the start of treatment, mean ± SEM): 176 ± 15 mm^3 | Tumor volume trace over time (HCT116 xenograft; 5 mpk, qw, iv, day 7 after the start of treatment, mean ± SEM): 183 ± 17 mm^3 | Tumor volume trace over time (HCT116 xenograft; 5 mpk, qw, iv, day 9 after the start of treatment, mean ± SEM): 170 ± 16 mm^3 | Tumor volume trace over time (HCT116 xenograft; 5 mpk, qw, iv, day 12 after the start of treatment, mean ± SEM): 125 ± 18 mm^3 | TGI (HCT116 xenograft; 5 mpk, qw, iv, day 14): 105.2% | Tumor volume (HCT116 xenograft; 5 mpk, qw, iv, day 14, mean ± SEM): 134 ± 12 mm^3 | T/C (HCT116 xenograft; 5 mpk, qw, iv, day 14, treated/control group average tumor volume): 17.4% | Tumor volume trace over time (HCT116 xenograft; 5 mpk, qw, iv, day 14 after the start of treatment, mean ± SEM): 134 ± 12 mm^3 | tumor response (in words) (HCT116 xenograft; mouse, in vivo): tumor growth is restrained by BCY8245 but the tumor does not undergo regression | TGI (NCI-H292 xenograft; 3 mg/kg biw, day 14): 112.2% | Tumor volume (TV) (NCI-H292 xenograft; 3 mg/kg biw, day 14): 65 mm^3 | TGI (NCI-H292 xenograft; 3 mg/kg qw, day 14): 101.4% | Tumor volume (TV) (NCI-H292 xenograft; 3 mg/kg qw, day 14): 149 mm^3 | TGI (NCI-H292 xenograft; 5 mg/kg qw, day 14): 109.8% | Tumor volume (TV) (NCI-H292 xenograft; 5 mg/kg qw, day 14): 83 mm^3 | Tumor volume (NCI-H292 xenograft; 3 mpk, biw, day 0 after the start of treatment): 162 mm^3 | Tumor volume (NCI-H292 xenograft; 3 mpk, biw, day 2): 243 mm^3 | Tumor volume (NCI-H292 xenograft; 3 mpk, biw, day 4): 211 mm^3 | Tumor volume (NCI-H292 xenograft; 3 mpk, biw, day 7): 101 mm^3 | Tumor volume (NCI-H292 xenograft; 3 mpk, biw, day 9): 100 mm^3 | Tumor volume (NCI-H292 xenograft; 3 mpk, biw, day 11): 87 mm^3 | T/C (NCI-H292 xenograft; 3 mpk, biw, day 14): 6.9% | TGI (NCI-H292 xenograft; 3 mpk, biw, day 14): 112.2% | Tumor Volume (Mean ± SEM) (NCI-H292 xenograft; 3 mpk, biw, day 14): 65 ± 3 mm^3 | Tumor volume (NCI-H292 xenograft; 3 mpk, biw, day 14): 65 mm^3 | Tumor volume (NCI-H292 xenograft; 3 mpk, qw, day 0 after the start of treatment): 160 mm^3 | Tumor volume (NCI-H292 xenograft; 3 mpk, qw, day 2): 220 mm^3 | Tumor volume (NCI-H292 xenograft; 3 mpk, qw, day 4): 266 mm^3 | Tumor volume (NCI-H292 xenograft; 3 mpk, qw, day 7): 218 mm^3 | Tumor volume (NCI-H292 xenograft; 3 mpk, qw, day 9): 167 mm^3 | Tumor volume (NCI-H292 xenograft; 3 mpk, qw, day 11): 161 mm^3 | T/C (NCI-H292 xenograft; 3 mpk, qw, day 14): 15.8% | TGI (NCI-H292 xenograft; 3 mpk, qw, day 14): 101.4% | Tumor Volume (Mean ± SEM) (NCI-H292 xenograft; 3 mpk, qw, day 14): 149 ± 43 mm^3 | Tumor volume (NCI-H292 xenograft; 3 mpk, qw, day 14): 149 mm^3 | Tumor volume (NCI-H292 xenograft; 5 mpk, qw, day 0 after the start of treatment): 160 mm^3 | Tumor volume (NCI-H292 xenograft; 5 mpk, qw, day 2): 176 mm^3 | Tumor volume (NCI-H292 xenograft; 5 mpk, qw, day 4): 191 mm^3 | Tumor volume (NCI-H292 xenograft; 5 mpk, qw, day 7): 105 mm^3 | Tumor volume (NCI-H292 xenograft; 5 mpk, qw, day 9): 82 mm^3 | Tumor volume (NCI-H292 xenograft; 5 mpk, qw, day 11): 91 mm^3 | T/C (NCI-H292 xenograft; 5 mpk, qw, day 14): 8.8% | TGI (NCI-H292 xenograft; 5 mpk, qw, day 14): 109.8% | Tumor Volume (Mean ± SEM) (NCI-H292 xenograft; 5 mpk, qw, day 14): 83 ± 8 mm^3 | Tumor volume (NCI-H292 xenograft; 5 mpk, qw, day 14): 83 mm^3 | tumor response (in words) (NCI-H292 xenograft; mouse, in vivo): causes regression of the tumor | anti-tumor activity (in words) (MDA-MB-468 xenograft; 0.3 mg/kg qw or biw): did not show any anti-tumor activity | TGI (MDA-MB-468 xenograft; [1]): 75.4% | Tumor volume (TV) (MDA-MB-468 xenograft; [1]): 242 mm^3 | TGI (MDA-MB-468 xenograft; 1 mg/kg qw, day 21): 92.1% | Tumor volume (TV) (MDA-MB-468 xenograft; 1 mg/kg qw, day 21): 204 mm^3 | tumor relapse (in words) (MDA-MB-468 xenograft; 1 mg/kg qw): obvious tumor relapse | TGI (MDA-MB-468 xenograft; 3 mg/kg qw, day 21): 164.9% | Tumor volume (TV) (MDA-MB-468 xenograft; 3 mg/kg qw, day 21): 27 mm^3 | tumor relapse (in words) (MDA-MB-468 xenograft; 3 mg/kg qw): didn't show any tumor relapse | anti-tumor activity at 3 mg/kg in presence of BCY8234 at 300 mg/kg versus alone (in words) (MDA-MB-468 xenograft; 3 mg/kg with BCY8234 300 mg/kg): antagonized by BCY8234 | T/C (MDA-MB-468 xenograft; 0.3 mpk, qw): 71.4% | TGI (MDA-MB-468 xenograft; 0.3 mpk, qw): 52.7% | T/C (MDA-MB-468 xenograft; 1 mpk, qw): 48.6% | TGI (MDA-MB-468 xenograft; 1 mpk, qw): 92.1% | T/C (MDA-MB-468 xenograft; 3 mpk, qw): 6.5% | TGI (MDA-MB-468 xenograft; 3 mpk, qw): 164.9% | tumor response (in words) (MDA-MB-468 xenograft; former vehicle group, single dose of 5 mg/kg on day 32): obvious tumor regression
